Experimental data: ChEMBL document CHEMBL3046835, “Insecticidal activity influence of beta-cypermethrin on the pathogenicity of Beauveria bassiana against Aleurodicus disperses” (Crop Prot, 2013)
Values after ≈ are worked out from the molar mass of the structure shown.

How the values were obtained:
[1] = test system: Beauveria bassiana; assay: Effect on Beauveria bassiana Bb-N1 conidial germination at 10 mg/L measured at 27 +/-2 degC after 24 hr (reference value: 94.85 +/-2.13%); assay type: ADME, organism-based; details: in vivo
[2] = test system: Beauveria bassiana; assay: Effect on Beauveria bassiana Bb-N1 conidial germination at 2 mg/L measured at 27 +/-2 degC after 24 hr (reference value: 94.85 +/-2.13%); assay type: ADME, organism-based; details: in vivo
[3] = test system: Aleurodicus dispersus; assay: Insecticidal activity against third-instar nymph stage of Aleurodicus dispersus in guava leaves assessed as mortality at 40 mg/l treated for 15 s measured at 27 +/-2 degC after 48 hr (reference value: 3%); assay type: functional
[4] = test system: Aleurodicus dispersus; assay: Insecticidal activity against third-instar nymph stage of Aleurodicus dispersus in guava plant leaves assessed as mortality at 8 mg/L applied via hand sprayer measured after 3 days under field conditions (reference value: 3%); assay type: functional; details: 72 h
[5] = test system: Aleurodicus dispersus; assay: Insecticidal activity against third-instar nymph stage of Aleurodicus dispersus in guava plant leaves assessed as mortality at 4 mg/l measured after 9 days in presence of 10^8 Beauveria bassiana conidial suspension under laboratory conditions (reference value: 45.7 +/-3.18%); assay type: functional; details: 216 h
[6] = test system: Aleurodicus dispersus; assay: Insecticidal activity against third-instar nymph stage of Aleurodicus dispersus in guava plant leaves assessed as mortality at 8 mg/l measured after 6 days in presence of 10^8 Beauveria bassiana conidial suspension under laboratory conditions (reference value: 32.8 +/-2.39%); assay type: functional; details: 144 h
[7] = test system: Aleurodicus dispersus; assay: Insecticidal activity against third-instar nymph stage of Aleurodicus dispersus in guava leaves assessed as mortality at 20 mg/l treated for 15 s measured at 27 +/-2 degC after 24 hr (reference value: 2%); assay type: functional
[8] = test system: Aleurodicus dispersus; assay: Insecticidal activity against third-instar nymph stage of Aleurodicus dispersus in guava plant leaves assessed as mortality at 4 mg/L applied via hand sprayer measured after 6 days under field conditions (reference value: 3.5%); assay type: functional; details: 144 h
[9] = test system: Aleurodicus dispersus; assay: Insecticidal activity against third-instar nymph stage of Aleurodicus dispersus in guava plant leaves assessed as mortality at 8 mg/L applied via hand sprayer measured after 9 days under field conditions (reference value: 4%); assay type: functional; details: 216 h
[10] = test system: Aleurodicus dispersus; assay: Insecticidal activity against third-instar nymph stage of Aleurodicus dispersus in guava plant leaves assessed as mortality at 8 mg/l measured after 6 days under laboratory conditions (reference value: 3%); assay type: functional; details: 144 h
[11] = test system: Aleurodicus dispersus; assay: Insecticidal activity against third-instar nymph stage of Aleurodicus dispersus in guava plant leaves assessed as mortality at 4 mg/l measured after 6 days under laboratory conditions (reference value: 3%); assay type: functional; details: 144 h
[12] = test system: Aleurodicus dispersus; assay: Insecticidal activity against third-instar nymph stage of Aleurodicus dispersus in guava leaves assessed as mortality at 10 mg/l treated for 15 s measured at 27 +/-2 degC after 24 hr (reference value: 2%); assay type: functional
[13] = test system: Aleurodicus dispersus; assay: Insecticidal activity against third-instar nymph stage of Aleurodicus dispersus in guava plant leaves assessed as mortality at 2 mg/l measured after 9 days under laboratory conditions (reference value: 3%); assay type: functional; details: 216 h
[14] = test system: Aleurodicus dispersus; assay: Insecticidal activity against third-instar nymph stage of Aleurodicus dispersus in guava plant leaves assessed as mortality at 4 mg/l measured after 6 days in presence of 10^8 Beauveria bassiana conidial suspension under laboratory conditions (reference value: 32.8 +/-2.39%); assay type: functional; details: 144 h
[15] = test system: Aleurodicus dispersus; assay: Insecticidal activity against third-instar nymph stage of Aleurodicus dispersus in guava leaves assessed as mortality at 2.5 mg/l treated for 15 s measured at 27 +/-2 degC after 24 hr (reference value: 2%); assay type: functional
[16] = test system: Aleurodicus dispersus; assay: Insecticidal activity against third-instar nymph stage of Aleurodicus dispersus in guava leaves assessed as mortality at 5 mg/l treated for 15 s measured at 27 +/-2 degC after 48 hr (reference value: 3%); assay type: functional
[17] = test system: Aleurodicus dispersus; assay: Insecticidal activity against third-instar nymph stage of Aleurodicus dispersus in guava plant leaves assessed as mortality at 2 mg/L applied via hand sprayer measured after 9 days in presence of 10^8 Beauveria bassiana conidial suspension under field conditions (reference value: 42.3 +/-3.58%); assay type: functional; details: 216 h
[18] = test system: Aleurodicus dispersus; assay: Insecticidal activity against third-instar nymph stage of Aleurodicus dispersus in guava plant leaves assessed as mortality at 4 mg/L applied via hand sprayer measured after 9 days under field conditions (reference value: 4%); assay type: functional; details: 216 h
[19] = test system: Beauveria bassiana; assay: Inhibition of Beauveria bassiana Bb-N1 mycelial growth at 8 mg/L measured at 27 +/-2 degC after 10 days (reference value: 2.4 +/-0.19%); assay type: organism-based; design: scale not given: the % may be the effect or the level left; details: in vivo, 240 h
[20] = test system: Beauveria bassiana; assay: Effect on Beauveria bassiana Bb-N1 conidial germination at 4 mg/L measured at 27 +/-2 degC after 24 hr (reference value: 94.85 +/-2.13%); assay type: ADME, organism-based; details: in vivo
[21] = test system: Aleurodicus dispersus; assay: Insecticidal activity against third-instar nymph stage of Aleurodicus dispersus in guava plant leaves assessed as mortality at 4 mg/l measured after 3 days in presence of 10^8 Beauveria bassiana conidial suspension under laboratory conditions (reference value: 24.3 +/-1.03%); assay type: functional; details: 72 h
[22] = test system: Aleurodicus dispersus; assay: Insecticidal activity against third-instar nymph stage of Aleurodicus dispersus in guava leaves assessed as mortality at 2.5 mg/l treated for 15 s measured at 27 +/-2 degC after 48 hr (reference value: 3%); assay type: functional
[23] = test system: Beauveria bassiana; assay: Inhibition of Beauveria bassiana Bb-N1 mycelial growth at 2 mg/L measured at 27 +/-2 degC after 10 days (reference value: 2.4 +/-0.19%); assay type: organism-based; design: scale not given: the % may be the effect or the level left; details: in vivo, 240 h
[24] = test system: Aleurodicus dispersus; assay: Insecticidal activity against third-instar nymph stage of Aleurodicus dispersus in guava plant leaves assessed as mortality at 2 mg/l measured after 6 days under laboratory conditions (reference value: 3%); assay type: functional; details: 144 h
[25] = test system: Beauveria bassiana; assay: Inhibition of Beauveria bassiana Bb-N1 mycelial growth at 4 mg/L measured at 27 +/-2 degC after 10 days (reference value: 2.4 +/-0.19%); assay type: organism-based; design: scale not given: the % may be the effect or the level left; details: in vivo, 240 h
[26] = test system: Aleurodicus dispersus; assay: Insecticidal activity against third-instar nymph stage of Aleurodicus dispersus in guava leaves assessed as mortality treated for 15 s measured at 27 +/-2 degC after 48 hr; assay type: functional
[27] = test system: Aleurodicus dispersus; assay: Insecticidal activity against third-instar nymph stage of Aleurodicus dispersus in guava plant leaves assessed as mortality at 8 mg/l measured after 3 days under laboratory conditions (reference value: 2%); assay type: functional; details: 72 h
[28] = test system: Aleurodicus dispersus; assay: Insecticidal activity against third-instar nymph stage of Aleurodicus dispersus in guava leaves assessed as mortality at 10 mg/l treated for 15 s measured at 27 +/-2 degC after 48 hr (reference value: 3%); assay type: functional

SMILES: CC1(C)[C@H](C=C(Cl)Cl)[C@H]1C(=O)O[C@@H](C#N)c1cccc(Oc2ccccc2)c1 [BETA-CYPERMETHRIN]
- germination rate [1]: 89.18%
- germination rate [2]: 93.78%
- mortality at 40 µg/mL [3]: 60.3%
- mortality at 8 µg/mL [4]: 29.4%
- mortality at 4 µg/mL [5]: 77.6%
- mortality at 8 µg/mL [6]: 80.6%
- mortality at 20 µg/mL [7]: 34.5%
- mortality at 4 µg/mL [8]: 26.7%
- mortality at 8 µg/mL [9]: 29.4%
- mortality at 8 µg/mL [10]: 39.3%
- mortality at 4 µg/mL [11]: 34.1%
- mortality at 10 µg/mL [12]: 23.1%
- mortality at 2 µg/mL [13]: 28.7%
- mortality at 4 µg/mL [14]: 77.6%
- mortality at 2.5 µg/mL [15]: 9.1%
- mortality at 5 µg/mL [16]: 32.3%
- mortality at 2 µg/mL [17]: 54.2%
- mortality at 4 µg/mL [18]: 26.7%
- Activity [19]: 4.4%
- germination rate [20]: 93.15%
- mortality at 4 µg/mL [21]: 74.3%
- mortality at 2.5 µg/mL [22]: 25.2%
- Activity [23]: 2.7%
- mortality at 2 µg/mL [24]: 28.7%
- Activity [25]: 3.1%
- LC95 [26]: 1768.57 µg/mL (≈ 4250 µM)
- LC50 ([26]; Aleurodicus dispersus, Nymph stage, 48 h): 18.4 µg/mL (≈ 44.1 µM)
- mortality at 8 µg/mL [27]: 39.3%
- mortality at 10 µg/mL [28]: 47.8%
